In publication PMC10301432, “Antiplasmodial, Trypanocidal, and Genotoxicity In Vitro Assessment of New Hybrid α,α-Difluorophenylacetamide-statin Derivatives” (Pharmaceuticals, 2023):
Entries after “also recorded” stand apart in the source; their conditions may differ. Read-outs that look alike come from different tables or passages of the source.

Experiments:
[1] = tested on: S. typhimurium TA97, TA98, TA100, TA102 and TA104 strains; test: Salmonella/microsome assay, overall outcome; details: all strains, −S9 and +S9; summarized outcome
Experimental: The mutagenicity reverse mutation test was carried out to investigate the potential of 13 (a–d) to induce genetic mutation in S. typhimurium TA97, TA98, TA100, TA102 and TA104 strains. The test was carried out according to the pre-incubation method, both in the absence and presence of a metabolic activation system (4% S9 mix, Aroclor-pre-induced, from Moltox Inc., Boone, NC, USA). DMSO 10% served as the negative control while known mutagens were used as the positive control substances. […] A dose-finding test was carried out with and without the metabolic activation system (S9 mix) for each tester strain.
For the assays without metabolic activation, 0.5 mL of 0.1 mol/L sodium-phosphate buffer (pH 7.4) was added, and for the assays in the presence of metabolic activation, 0.5 mL S9 mix was mixed with 0.1 mL culture medium (2 × 10^8 cells/mL) plus 0.1 mL of each compound solutions. The mixtures were incubated in a shaker at 37 °C (pre-incubation). After 30 min pre-incubation under light protection, the mixture was added to and mixed with 2 mL top agar containing 0.05 mmol/L L-histidine and D-biotin for the S. typhimurium strains. Each of these was then spread on a minimum glucose agar plate. After the top agar solidified, the plates were incubated at 37 °C for 60–72 h. Each tester strain was assayed in triplicate, and the number of revertant colonies was counted for each tester strain and treatment group [58].

[2] = tested on: HepG2 cells; test: In vitro micronuclei assay, HepG2; type: cell-based, human; details: HepG2; 3 h of exposure
Experimental: (§1) Fresh HepG2 and CHO-K1 cells were seeded at the density of 1 × 10^5 cells/mL into 24-well plates (1 mL/per well). The compounds 13 (a–d) were then added to the medium to final concentrations of 500, 1000 and 2000 µM and incubation continued for 3 h or 24 h. DMSO 10% was used as the negative control, and, BaP (80 µM) for HepG2 and MMC (5 µM) for CHO-K1 were the positive controls. After exposure to the compounds, the cells were incubated for more than 24 h under growth conditions before quantification of the micronuclei and cytotoxicity. The cytogenetic studies were carried out in triplicate as described previously (see [51]). In order to determine the mitotic index and the number of cells with micronuclei, the medium was replaced by a cold methanol-glacial acetic acid (3:1) fixative for 30 min, and the cells then rinsed with distilled water for 2 min and air dried. The fixed cells were stained with 4,6-diamidino-2-phenylindole (DAPI) ([…]) dissolved in McIlvaine buffer (0.1 M citric acid plus 0.2 M Na2HPO4, pH 7.0) for 60 min, washed with McIlvaine buffer for 5 min, briefly rinsed with distilled water and mounted in glycerol. To determine the mitotic index and the number of cells with micronuclei, 1000 cells per well (3000 cells per concentration) were analyzed under a fluorescence microscope. The results for micronuclei were presented as the percentage of cells containing micronuclei in the 3000 cells/concentration group analyzed. Cells that glowed brightly and had homogenous nuclei were considered as having normal phenotypic morphology. Apoptotic nuclei were identified by the condensed chromatin at the periphery of the nuclear membrane or by fragmented nuclear body morphology. Necrotic cells presented chromatin forms with irregularly shaped aggregates, a pyknotic nucleus (shrunken and darkly stained) and cell membrane disruption, with cellular debris spilled into the extracellular milieu. Once again, 3000 cells were counted and the percentage of viable cells was evaluated, discounting apoptotic and necrotic cells. Statistical differences between the groups were analyzed by two-way ANOVA (p < 0.01) and Tukey’s post hoc test.

[3] = tested on: CHO-K1 cells; type: cell-based, Chinese Hamster
Experimental: as §1

[4] = in vitro; type: cell-based; details: human
Experimental: Human hepatocellular carcinoma (HepG2) and Chinese Hamster Ovary (CHO-K1) cells obtained from the American Type Culture Collection (Manassas, VA, USA) were cultured in Eagle’s medium (MEM, Gibco®, Waltham, MA, USA) containing 10% fetal bovine serum (FBS) plus 100 µg/mL streptomycin and 100 µg/mL penicillin at 37 °C in a 5% CO2 atmosphere. Logarithmic-phase cells were used in all the experiments.
Fresh HepG2 and CHO-K1 cells were seeded at a density of 1 × 10^4/well. […] Briefly, after treatment, the culture medium was replaced by 90 μL fresh culture medium and 10 μL WST-1 reagent and incubated at 37 °C and 5% CO2 for 3 h. The absorbance was then measured at 440 nm according to the kit protocol.

[5] = tested on: P. falciparum parasites (W2 clone) chloroquine-resistant; test: Antiplasmodial activity, anti-HRPII assay; type: cell-based, Plasmodium falciparum; details: for SI: LC50 (HepG2)/EC50 (P. falciparum); for EC50: P. falciparum W2 clone, 24 h at 37 °C, read-out: EC50; for Antiplasmodial Activity: summarized outcome
Description: P. falciparum W2 clone was maintained in continuous culture as previously described. […] Prior to testing, the ring-stage parasites were synchronized using sorbitol.
The test quantification was read at 450 nm on a spectrophotometer (SpectraMax340PC384, Molecular Devices Sunnyvale, CA, USA), and the drug activity was expressed as the half-maximal inhibitory concentration (EC50) compared to the drug-free controls using the curve-fitting software Origin 8.0 (OriginLab Corporation, Northampton, MA, USA).

[6] = in vitro; type: cell-based; details: mouse
Experimental: (§2) Cardiac cell cultures were incubated for 24 h at 37 °C with different concentrations of the compounds (up to 200 µM) diluted in DMEM (without phenol red). Their morphology and spontaneous contractibility were evaluated by light microscopy and then the cellular viability was determined by the PrestoBlue® assay. For this colorimetric bioassay, PrestoBlue® (Invitrogen, Waltham, MA, USA) was added to each well (using a 10:1 medium/dye), the plate was further incubated for 24 h followed by optical density (OD) measurement performed at 570 and 600 nm, as recommended by the manufacturer.

[7] = in vitro; type: cell-based; details: mouse; remark: listed apart in the source
Experimental: Primary cultures of cardiac cells (CC) were obtained as reported in [50]. The cultures were sustained in Dulbecco’s modified Eagle’s medium (DMEM) supplemented with 10% horse serum, 5% fetal bovine serum (FBS), 2.5 mM CaCl2, 1 mM L-glutamine, and 2% chicken embryo extract. Cell cultures were maintained at 37 °C in an atmosphere of 5% CO2, and assays were run at least three times in triplicate.
as §2

[8] = tested on: CHO-K1 and HepG2 cell lineages; type: cell-based
Experimental: as §1, with “Necrotic cells presented chromatin forms with irregularly shaped aggregates, a pyknotic nucleus (shrunken and darkly stained) and cell membrane disruption, with cellular debris spilled into the extracellular milieu.” left out

[9] = tested on: Salmonella enterica serovar Typhimurium TA102
[10] = tested on: Salmonella enterica serovar Typhimurium TA97; test: Salmonella/microsome assay, TA97; details: for mutagenicity to TA97: at concentrations above 300 µM
Experimental: Salmonella enterica serovar Typhimurium (S. typhimurium) strains TA97, TA98, TA100, TA104 and TA102 from the authors’ stock were used as described in the mutagenicity assay.
To determine the cytotoxic effects, after 30 min pre-incubation, the assay mixtures were diluted in 0.9% NaCl (w/v) to obtain a suspension containing 2 × 10^2 cells/mL. […] The plates were then incubated at 37 °C for 24 h and the colonies counted. All the experiments were conducted in triplicate and were repeated at least twice. Statistical differences between the groups were analyzed by a two-way ANOVA (p < 0.05) and Tukey’s post hoc test.

[11] = Plasmodium falciparum, W2, 24 h

Structure (SMILES)	Bacterial Mutagenicity [1]	micronuclei formation (genotoxicity) [2]	CC50 at 24 h [4]	SI [5]	EC50 [5, 11]	Antiplasmodial Activity [5]	CC50 at 96 h [6]	CC50 at 24 h [7]	revertant His+ colonies TA102 ([9]; +S9, 3 µM)	revertant His+ colonies TA102 ([9]; +S9, 15 µM)	revertant His+ colonies TA102 ([9]; +S9, 30 µM)	revertant His+ colonies TA102 ([9]; +S9, 150 µM)	revertant His+ colonies TA102 ([9]; +S9, 300 µM)	revertant His+ colonies TA102 ([9]; +S9, 1500 µM)	revertant His+ colonies TA102 ([9]; −S9, 3 µM)	revertant His+ colonies TA102 ([9]; −S9, 15 µM)	revertant His+ colonies TA97 ([10]; +S9, 3 µM)	revertant His+ colonies TA97 ([10]; +S9, 15 µM)	revertant His+ colonies TA97 ([10]; +S9, 30 µM)	revertant His+ colonies TA97 ([10]; +S9, 150 µM)	other results
CC(=O)Nc1ccc(Br)cc1C(F)(F)C(=O)NCC[C@@H]1C[C@H](CC(=O)OC(C)(C)C)OC(C)(C)O1 [Compound 13d, tert-Butyl 2-((4R,6R)-6-(2-(2-(2-acetamido-5-bromophenyl)-2,2-difluoroacetamido)ethyl)-2,2-dimethyl-1,3-dioxan-4-yl)acetate]	Yes	induced a significant micronuclei formation; also recorded: induced genotoxicity	> 1000 µM	Inactive	> 89 µM	No	114 ± 5.29 µM	> 500 µM	153 ± 13	155 ± 20	160 ± 11	162 ± 31	176 ± 11	Cytotoxic	356 ± 7	Cytotoxic	134 ± 3	135 ± 1	201 ± 4	203 ± 1	cytotoxicity (survival rate) in micronuclei assay [2]: non-cytotoxic; micronuclei formation (genotoxicity) [3]: induced genotoxicity; Mammalian Cell Genotoxicity [8]: Yes; revertant His+ colonies TA97 ([10]; +S9, 300 µM): 288 ± 6; revertant His+ colonies TA97 ([10]; +S9, 1500 µM): 410 ± 10; mutagenicity to TA97 ([10]; +S9): significant mutagenicity; also recorded: mutagenic; revertant His+ colonies TA97 ([10]; −S9, 3 µM): 119 ± 8; revertant His+ colonies TA97 ([10]; −S9, 15 µM): 137 ± 1; revertant His+ colonies TA97 ([10]; −S9, 30 µM): 135 ± 4; revertant His+ colonies TA97 ([10]; −S9, 150 µM): 134 ± 4; revertant His+ colonies TA97 ([10]; −S9, 300 µM): 146 ± 6; revertant His+ colonies TA97 ([10]; −S9, 1500 µM): Cytotoxic; mutagenicity to TA97 ([10]; −S9): significant mutagenicity; also recorded: mutagenic
CC(=O)Nc1ccc(Cl)cc1C(F)(F)C(=O)NCC[C@@H]1C[C@H](CC(=O)OC(C)(C)C)OC(C)(C)O1 [Compound 13c, tert-Butyl 2-((4R,6R)-6-(2-(2-(2-acetamido-5-chlorophenyl)-2,2-difluoroacetamido)ethyl)-2,2-dimethyl-1,3-dioxan-4-yl)acetate]	not mutagenic and No	did not induce micronuclei formation	> 1000 µM	>85	< 14 µM	Yes	153 ± 25.2 µM	> 500 µM	392 ± 8	390 ± 12	402 ± 24	401 ± 66	403 ± 12	430 ± 14	373 ± 50	386 ± 35	219 ± 16	245 ± 22	247 ± 14	249 ± 17	mitotic index [3]: did not affect the mitotic index; EC50 [5]: 11.8 ± 2 µM; revertant His+ colonies TA102 ([9]; −S9, 30 µM): 387 ± 33; revertant His+ colonies TA102 ([9]; −S9, 150 µM): 386 ± 5; revertant His+ colonies TA102 ([9]; −S9, 300 µM): 400 ± 24; revertant His+ colonies TA102 ([9]; −S9, 1500 µM): 450 ± 32; revertant His+ colonies TA97 ([10]; +S9, 300 µM): 259 ± 1; revertant His+ colonies TA97 ([10]; +S9, 1500 µM): 261 ± 13; revertant His+ colonies TA97 ([10]; −S9, 3 µM): 81 ± 6; revertant His+ colonies TA97 ([10]; −S9, 15 µM): 84 ± 8; revertant His+ colonies TA97 ([10]; −S9, 30 µM): 84 ± 6; revertant His+ colonies TA97 ([10]; −S9, 150 µM): 70 ± 6; revertant His+ colonies TA97 ([10]; −S9, 300 µM): 71 ± 11; revertant His+ colonies TA97 ([10]; −S9, 1500 µM): 62 ± 9
CC(=O)Nc1ccc(C)cc1C(F)(F)C(=O)NCC[C@@H]1C[C@H](CC(=O)OC(C)(C)C)OC(C)(C)O1 [Compound 13b, tert-Butyl 2-((4R,6R)-6-(2-(2-(2-acetamido-5-methylphenyl)-2,2-difluoroacetamido)ethyl)-2,2-dimethyl-1,3-dioxan-4-yl)acetate]	not mutagenic and no mutagenic potential and No	statistical enhancement; also recorded: genotoxic; also recorded: only increased micronucleation in HepG2 cells at >2000 µM	> 1000 µM	>70	< 14 µM	Yes	114 ± 35.4 µM	> 500 µM	365 ± 37	386 ± 42	403 ± 19	396 ± 31	372 ± 40	399 ± 18	388 ± 20	393 ± 18	189 ± 43	183 ± 43	216 ± 47	231 ± 5	cytotoxicity (survival rate) in micronuclei assay [2]: statistical enhancement; also recorded: cytotoxic; mitotic index [3]: did not affect the mitotic index; EC50 [5]: 14.3 ± 0.2 µM; Mammalian Cell Genotoxicity [8]: Yes; revertant His+ colonies TA102 ([9]; −S9, 30 µM): 423 ± 11; revertant His+ colonies TA102 ([9]; −S9, 150 µM): 503 ± 23; revertant His+ colonies TA102 ([9]; −S9, 300 µM): 543 ± 39; revertant His+ colonies TA102 ([9]; −S9, 1500 µM): 560 ± 41; revertant His+ colonies TA97 ([10]; +S9, 300 µM): 244 ± 23; revertant His+ colonies TA97 ([10]; +S9, 1500 µM): 288 ± 33; revertant His+ colonies TA97 ([10]; −S9, 3 µM): 69 ± 12; revertant His+ colonies TA97 ([10]; −S9, 15 µM): 76 ± 7; revertant His+ colonies TA97 ([10]; −S9, 30 µM): 75 ± 12; revertant His+ colonies TA97 ([10]; −S9, 150 µM): 74 ± 12; revertant His+ colonies TA97 ([10]; −S9, 300 µM): 84 ± 7; revertant His+ colonies TA97 ([10]; −S9, 1500 µM): 89 ± 27
